Consider eight molecules from US8633179B2, “Synergistic interaction of NOTCH-1 inhibitors with glucocorticoids” (priority 2007, dated 2014).

One series has as its system KOPTK1 cells. Put plainly: Cell viability assay. It is filed as cell-based, human. On the procedure:
(§1) FIG. 1. […] (a-c). […] (e) Percentage of apoptotic cells (annexinV positive/PI negative) in CUTLL1 (72 hours), KOPTK1 (48 hours) and TALL1 cells (72 hours) treated with DMSO (control), CompE (100 nM), dexamethasone (1 μM) and dexamethasone (1 μM) plus CompE (100 nM). […] Data in (a-f) are means±standard deviation (s.d.) of triplicate experiments. Statistical significance was assessed with Student's t-test.
(§2) Proliferation and cell size assays. Cell growth ratios were determined by a colorimetric assay using the Cell Proliferation Kit I (MU) (Roche) in cell lines treated with different antileukemic drugs in the presence or absence of CompE (100 nM). The range of concentrations used in these experiments was: dexamethasone (10^−10 to […]), etoposide (10^−10 to 10^−4 M), methotrexate (10^−10 to 10^−4 M), L-Asparaginase (10^−8 to 10^−2 g/l) and vincristine (10^−12 to 10^−6 M).

Another series concerns TALL1 cells. Kind of series: Cell viability assay. It is filed as cell-based, human. As for the experimental part: as §1, §2
The test system of another series is PARP cleavage. Put plainly: Western blot analysis of PARP cleavage in CUTLL1 cells. It is filed as cell-based, human. On the procedure:
as §1
Western blot analysis. Antibodies against glucocorticoid receptor (E-20, Santa Cruz Biotechnology), BIM (Cell Signaling Technologies); BMF (BD Bioscience) and α-actin (C-11, Santa Cruz Biotechnology) were used in immunoblot assays following manufacturer instructions.
For orientation: In western blotting, separated proteins are transferred to a membrane and probed.

For a further series, the system named is CUTLL1 cells. Kind of series: Cell viability (MTT/colorimetric proliferation) assay. The note with it: for effect of γ-secretase inhibition on the apoptotic response triggered by the drug: CUTLL1, 100 nM CompE or vehicle, increasing drug concentrations. It is filed as cell-based, human. As for the experimental part: FIG. 1. GSIs reverse glucocorticoid resistance in T-ALL cells. (a-c). […] Statistical significance was assessed with Student's t-test.
FIG. 7. Analysis of the effects of GSI treatment in chemotherapy response. Cell viability analysis in the CUTLL1 cells treated with 100 nM CompE or vehicle only in presence of increasing concentrations of etoposide, methotrexate, L-asparaginase and vincristine. Cell viability was analyzed by an MTT assay and cytotoxicity data was represented as percentage of viable cells compared with non-treated controls. Data are means±s.d. of triplicate experiments.
Proliferation and cell size assays.

For a further series, the system named is NOTCH1 signaling. Put plainly: NOTCH1 signaling in CUTLL1 cells. Type of series: cell-based, human. The following applies: CUTLL1, CompE 72 hours.
The nature of series [1]: DBZ metabolism by liver microsomes in vitro. Type of series: in vitro ADME, mouse. The following applies: in the presence of dexamethasone vs vehicle, 37° C. As for the experimental part: To analyze the effects of dexamethasone in the hepatic metabolism of DBZ, mouse liver microsomes (Xenotech) were incubated with DBZ or dexamethasone plus DBZ at 37° C. and DBZ concentrations were analyzed by LC/MS/MS mass spectrometry in samples taken at serial timepoints using a standard curve prepared in incubation buffer with heat inactivated liver microsomes.
For orientation: Microsomes from liver hold many membrane-bound enzymes, among them those of drug oxidation.

Series [2] has as its system CUTLL1 cells expressing luciferase.
Experimental: Leukemia xenograft model. Before intravenous xenograft transplantation, recipient animals were irradiated with a total x-ray dose of 300 cGy. Two million CUTLL1 cells expressing luciferase were injected via the tail vein. After a 3-week window for tumor engraftment, mice with homogeneous tumor burdens were segregated into treatment groups (8 animals per group) and treated daily with vehicle (DMSO), dexamethasone (15 mg/kg), DBZ (10 μmol/kg) or dexamethasone (15 mg/kg) plus DBZ (10 μmol/kg) by intraperitoneal injection for 14 days. Disease progression/response was evaluated weekly using bioimaging as described above by integrating the photonic flux (photons per second) through a region around each mouse. Animals were followed up for up to 10 weeks. At the end of the observation period, single cell suspensions from the spleen of surviving animals were analyzed for the presence of leukemic cells by flow cytometry after staining with human anti-CD45-FITC (BD Biosciences).
The nature of series [3]: Pharmacokinetic analysis of DBZ in mouse plasma. Type of series: in vivo. The following applies: DBZ 2 μmol/kg tail vein; mice pre-treated with dexamethasone 15 mg/kg for 5 days vs vehicle. On the procedure:
Pharmacokinetic and drug metabolism studies. […] The concentration of DBZ in mouse plasma was determined using a standard curve (analyte peak area vs. concentration) generated with calibration standard pools.

The conditions of series [4]: mouse, in vivo.
The next series deals with CUTLL1 T-ALL xenografts. Kind of series: Subcutaneous xenograft model with in vivo bioimaging. On the set-up: species or system NOD/SCID mice. The following applies: 4 days of daily i.p. treatment; dexamethasone 15 mg/kg, DBZ 10 μmol/kg.
The test system of another series is Klf4. Kind of series: Klf4 expression in small intestine of treated mice. Type of series: in vivo.
Series [5] is described as follows: Mouse toxicity model (histology, immunohistochemistry, flow cytometry). The following applies: 5 days of treatment. In general terms: A flow cytometer gives signals particle by particle.

Read-outs that look alike come from different tables or passages of the source.

Experimental for CUTLL1 T-ALL xenografts: Subcutaneous xenograft model and in vivo imaging. […] For subcutaneous xenograft experiments, 2.5×10^6 T-ALL cells embedded in matrigel (BD Biosciences) were injected in the flank. After 1 week, mice were segregated into treatment groups (6 animals per group) and treated daily with vehicle (DMSO), dexamethasone (15 mg/kg), DBZ (10 μmol/kg) or dexamethasone (15 mg/kg) plus DBZ (10 μmol/kg) by intraperitoneal injection. For imaging studies, mice were anesthetized by isoflurane inhalation and injected with D-luciferin at 50 mg/Kg (Xenogen) intraperitoneally. Photonic emission was imaged with the In Vivo Imaging System (IVIS, Xenogen) with a collection time of 1 minute. Tumor bioluminescence was quantified by integrating the photonic flux (photons per second) through a region encircling each tumor as determined by the LIVING IMAGES software package (Xenogen).
Text for Klf4: KLF4 regulation by NOTCH signaling in the gut. (a,b) Immunohistochemistry analysis of Klf4 expression in small intestine of mice treated with dexamethasone, DBZ or the combination of dexamethasone plus DBZ for 5 days. Scale bars represent 100 μm. (c) Real-time PCR analysis of Klf4 transcript levels in small intestine of mice treated with dexamethasone, DBZ or the combination of dexamethasone plus DBZ for 5 and 10 days. Gapdh levels were used as a reference control. Data are means±s.d. of three animals per group.
Quantitative real-time PCR. […] Total RNA from mouse tissues was extracted using Trizol reagent (Invitrogen). cDNA was generated with the ThermoScript RT-PCR system (Invitrogen) and analyzed by quantitative real-time PCR using SYBR Green RT-PCR Core Reagents kit and the 7300 Real-Time PCR System (Applied Biosystems). Relative expression levels were normalized with GAPDH expression used as a reference control.
Mouse toxicity model. To analyze the effects of GSI cotreatment with dexamethasone in healthy (non-leukemia-bearing) mice, we treated C57/Bl6 female animals (3 mice per group) daily with vehicle (DMSO), dexamethasone (15 mg/kg), DBZ (10 μmol/kg) and dexamethasone (15 mg/kg) plus DBZ (10 μmol/kg) by intraperitoneal injection for 5 and 10 days. […]

Take `C[C@H](NC(=O)Cc1cc(F)cc(F)c1)C(=O)N[C@H]1N=C(c2ccccc2)c2ccccc2N(C)C1=O` [CompE]: the “cell response to CompE treatment alone” value in the series with KOPTK1 cells and in the series on TALL1 cells was “G1 cell cycle arrest” in each case. Moreover, the “PARP cleavage (Western blot)” value in the series on PARP cleavage (CUTLL1) is “no significant increase in PARP cleavage”. Also, in the series on CUTLL1 cells (CUTLL1, 72 hours), the “cell response to CompE alone (cell cycle, apoptosis)” value was “modest cytostatic response characterized by G1 cell cycle arrest with little or no apoptosis”. Besides, in the series on NOTCH1 signaling, the NOTCH1 signaling result is on record as “effectively blocks NOTCH1 signaling”.
Take `C[C@H](NC(=O)Cc1cc(F)cc(F)c1)C(=O)NC1C(=O)N(C)c2ccccc2-c2ccccc21` (stereo partly drawn) [DBZ, (2S)-2-[2-(3,5-difluorophenyl)-acetylamino]-N-(5-methyl-6-oxo-6,7-dihydro-5H-dibenzo[b,d]azepin-7-yl)-propionamide]: in series [1], the “DBZ metabolism by liver microsomes” value is recorded as “decrease in DBZ metabolism”. In series [2] (daily i.p. for 14 days), the “toxicity in leukemia-bearing mice (mortality, weight loss)” value is “accelerated mortality associated with weight loss due to GSI toxicity”. Also, in series [2] (end of the observation period (10 weeks), vs. controls), the survival result is given as “inferior outcome”. Moreover, in series [3], the “clearance of DBZ in vivo” value was “reduced the clearance of DBZ”. In addition, in [4], the “histopathology of the gut after 5 days” value is “moderate secretory metaplasia with increased number of goblet cells”, the “intestinal proliferation (Ki67 staining)” value is listed as “marked reduction in proliferation”, the “spleen histology / cellularity” value is given as “disappearance of the marginal zone in the white pulp” and the “thymus histology / cellularity” value is on record as “thymic atrophy with loss of the lymphoid cells from the cortex”. In the series on CUTLL1 T-ALL xenografts, the “tumor growth / tumor burden by bioimaging” value is reported as “moderate delay in tumor growth”. Besides, the “Klf4 expression by RT-PCR” value with Klf4 (5 and 10 days) is recorded as “gradual increase of Klf4 expression”. Also, the “KLF4 expression by immunohistochemistry” value in the series on Klf4 (5 days) was “marked increased in KLF4 staining”.
A word on the IC50: it is the concentration that gives 50% inhibition. With `C[C@@H]1C[C@H]2[C@@H]3CCC4=CC(=O)C=C[C@]4(C)[C@@]3(F)[C@@H](O)C[C@]2(C)[C@@]1(O)C(=O)CO` [dexamethasone], in series [5], the “spleen histology / cellularity” value is “moderate atrophy of the white pulp with preservation of the marginal zone and disorganization of the red pulp”; the “thymus histology / cellularity” value is given as “thymic atrophy with loss of the lymphoid cells from the cortex”. Moreover, the “histopathology of the gut after 5 days” value in series [5] (small intestine, H&E and PAS) was “no histopathological changes in the gut”. Moreover, in the series with CUTLL1 cells (Homo sapiens, CUTLL1 cells, 72 hours, dexamethasone in the presence of CompE (100 nM)), the IC50 is 77 nM.
Consider `COc1cc([C@@H]2c3cc4c(cc3[C@@H](O[C@@H]3O[C@@H]5CO[C@@H](C)O[C@H]5[C@H](O)[C@H]3O)[C@H]3COC(=O)[C@H]23)OCO4)cc(OC)c1O` [etoposide], for which, in the series with CUTLL1 cells, the “effect of γ-secretase inhibition on the apoptotic response triggered by the drug” value (“effect of γ-secretase inhibition” for short) was “did not influence the apoptotic responses”.
As to `CN(Cc1cnc2nc(N)nc(N)c2n1)c1ccc(C(=O)N[C@@H](CCC(=O)O)C(=O)O)cc1` [methotrexate], the “effect of γ-secretase inhibition” value in the series on CUTLL1 cells is recorded as “did not influence the apoptotic responses”.
For `CC[C@]1(O)C[C@H]2CN(CCc3c([nH]c4ccccc34)[C@@](C(=O)OC)(c3cc4c(cc3OC)N(C=O)[C@H]3[C@@](O)(C(=O)OC)[C@H](OC(C)=O)[C@]5(CC)C=CCN6CC[C@]43[C@@H]65)C2)C1` [vincristine], the “effect of γ-secretase inhibition” value in the series on CUTLL1 cells is listed as “did not influence the apoptotic responses”.
For Z-VAD, in the series on PARP cleavage (CUTLL1, Western blot and annexin V-PI staining), the “effect on PARP cleavage and apoptosis triggered by CompE plus dexamethasone” value is “reversed the induction of PARP cleavage and apoptosis”.

B1: L-asparaginase: antineoplastic drug from Roche; inhibition of protein biosynthesis (protein, UniProt P00805 23-348, looked up)
L-asparaginase 2: LPNITILATGGTIAGGGDSATKSNYTVGKVGVENLVNAVPQLKDIANVKGEQVVNIGSQDMNDNVWLTLAKKINTDCDKTDGFVITHGTDTMEETAYFLDLTVKCDKPVVMVGAMRPSTSMSADGPFNLYNAVVTAADKASANRGVLVVMNDTVLDGRDVTKTNTTDVATFKSVNYGPLGYIHNGKIDYQRTPARKHTSDTPFDVSKLNELPKVGIVYNYANASDLPAKALVDAGYDGIVSAGVGNGNLYKSVFDTLATAAKTGTAVVRSSRVPTGATTQDAEVDDAKYGFVASGTLNPQKARVLLQLALTQTKDPQQIQQIFNQY
Regarding B1, the “effect of γ-secretase inhibition” value in the series on CUTLL1 cells was “did not influence the apoptotic responses”.
